From patent publication US20210393785A1, “Nucleic acid nanocarrier drug and preparation method thereof” (BAI YAO ZHI DA (BEIJING) NANOBIO TECHNOLOGY CO., LTD., priority 2018, published 2021)
Several values for one entry are separate records, joined by “and”; a condition that tells them apart may be missing. Equal values may be shown once.

How the values were obtained:
[1] = tested on: HepG2 cells; assay: Cytotoxicity in HepG-2 cells (CellTiter-Glo); type: cell-based, human; details: 96 hours
Method: 1) Harvesting cells in a logarithmic growth phase, taking a small amount and staining with trypan blue for counting to ensure that the cell viability reaches more than 80%;
(§1) 3) planting 90 μL/well of cell suspension into the 96-well plate, herein the number of cells per well in the plate is 2000;
4) placing the planted cell plate in the incubator at 37 DEG C. and incubating overnight under conditions of 5% CO2 and 95% humidity;
(§2) 5) performing 3.16-fold gradient dilution on the compound at 9 concentration points;
6) taking out the cell culture plate, and adding 10 μL/well of 10× concentration drug working solution to the corresponding wells of the cell culture plate, herein three replicate holes are made for each concentration, and the final drug action concentration is shown in Table 56 below;
(§3) 7) placing the cell culture plate in the incubator and continuously incubating for 96 hours;
8) placing the CellTiter-Glo reagent and the drug treatment cell culture plate at the room temperature and equilibrating for 30 minutes;
9) adding 50 μL of the CellTiter-Glo reagent to each well;
10) shaking in the orbital shaker for 2 minutes so that the cells are adequately lysed;
11) placing the cell culture plate at the room temperature and equilibrating for 10 minutes, reading a chemiluminescence value by using EnVision; and
12) data processing and analysis.
GraphPad Prism 5.0 software is used to process data graphically. Nonlinear S-curve regression is used to fit the data to obtain a dosage-effect curve, and an IC50 value is calculated from this.
Cell survival rate (%)=(Lumdrug to be tested−Lummedium control)/(Lumcell control−Lummedium control)×100%.
Lumcell control-Lummedium control is set to 100%, and a LumMedium control value is set to 0%.

[2] = tested on: LN-229 cells; assay: Cytotoxicity in LN-229 cells; type: cell-based; details: 96 hours
Method: 2) adjusting the cell density to 2.22×10^4/mL with a growth medium;
6) taking out the cell culture plate, and adding 10 μL/well of 10× concentration drug working solution to the corresponding wells of the cell culture plate, herein three replicate holes are made for each concentration, and the final drug action concentration is shown in Table 46 below;
8) placing the CellTiter 96® AQueous One Solution reagent at the room temperature and thawing for 90 minutes or thawing in a water bath at 37 DEG C., and then equilibrating at the room temperature for 30 minutes;
9) adding 50 μL/well of the CellTiter 96® AQueous One Solution reagent to the cell culture plate; […]
11) using the microplate reader to read a OD490 value of each well in the cell plate; and […]

[3] = tested on: Hela cells; assay: Cytotoxicity in Hela cells (CellTiter 96 AQueous One, OD490); type: cell-based; details: Homo sapiens, 72 hours
Method: (§4) 1) Harvesting cells in a logarithmic growth phase, taking a small amount and staining with trypan blue for counting to ensure that the cell viability reaches more than 98%;
3) planting 90 μL/well of cell suspension into the 96-well plate, herein the number of cells per well in the plate is 5000;
(§5) 4) placing the planted cell plate in the incubator at 37 DEG C. and incubating overnight;
as §2
6) taking out the cell culture plate, and adding 10 μL/well of 10× concentration drug working solution to the corresponding wells of the cell culture plate, herein three replicate holes are made for each concentration, and the final drug action concentration is shown in Table 66 below;
7) placing the cell culture plate in the incubator and continuously incubating for 72 hours;
8) placing the CellTiter 96® AQueous One Solution reagent at the room temperature and thawing for 90 minutes or thawing in a water bath at 37 DEG C., placing at the room temperature and equilibrating for 30 minutes; […]
(§6) 11) using a microplate reader to read a OD490 value of each well in the cell plate; and […]
(§7) GraphPad Prism 5.0 software is used to process data graphically. […] A calculation formula of the survival rate is as follows, the IC50 may be automatically calculated in GraphPad Prism 5.0. […]

[4] = tested on: SGC-7901 cells; assay: Cytotoxicity in SGC-7901 cells (CellTiter 96 AQueous One, OD490); type: cell-based, human; details: 96 hours
Method: as §4, §1, §5, §2
6) taking out the cell culture plate, and adding 10 μL/well of 10× concentration drug working solution to the corresponding wells of the cell culture plate, herein three replicate holes are made for each concentration, and the final drug action concentration is shown in Table 76 below;
as §3
8) placing the CellTiter 96® AQueous One Solution reagent at the room temperature and thawing for 90 minutes or thawing in a water bath at 37 DEG C., and placing at the room temperature and equilibrating for 30 minutes; […]
as §6, §7

[5] = tested on: HepG2 cells; assay: CCK8 toxicity of DNA nanoparticles and carrier drugs to HepG2; type: cell-based; details: Homo sapiens, 72 hours
Method: A CCK8 method is used to detect the toxicity of DNA nanoparticles and carrier drugs to HepG2.
1. HepG2 cells in a logarithmic growth phase are taken, trypan blue is used for staining and the cell viability is counted to be 98.3%, plating is performed with 5000 Cell/well, a volume is 100 μL/well, 8 96-well plates are paved with 57 wells per plate, and it is incubated overnight at 37 DEG C.
2. A sample to be tested is diluted according to the following table and added: the original culture medium is removed and 100 μL of a culture medium of the sample to be tested with the different concentration is added, and there are 3 replicate wells in each group.
In the present embodiment, the loaded drug and the blank carrier are firstly prepared into 100 μM of stock solution by using the PBS, and then diluted with the complete culture medium (biotin-free DMEM). The original drug doxorubicin is firstly prepared into 100 μM of stock solution by the DMSO, and then diluted with the complete culture medium (biotin-free DMEM). The DMSO is directly diluted with the complete medium (biotin-free DMEM).
3. […]
6. A microplate reader is used to measure an absorbance at 450 nm.
7. Calculation: cell viability (%)=(OD experimental group-OD blank group)×100%/(OD control group-OD blank group), IC50 is calculated by Graph Pad Prism 5.0.

[6] = Particle size measurement (DLS hydrodynamic size); type: physicochemical
From the text: 1. Preparing a potential sample (conventional-sequence DNA self-assembly product D-7) and putting into a sample pool, opening a sample pool cover of an instrument, and placing the instrument; […]
4. clicking Ok to complete the settings, while a measurement dialog box appears, clicking Start to start, a DLS measurement value result of a hydrodynamic size of the self-assembly product D-7 is as follows: […]

## N.N.[Cl][Pt][Cl] [Cisplatin]
[1]
  IC50: 3.99 µM
[1]; highest concentration of each sample (Table 56: 100 μM, DNAh-Bio-Cy5 4.9 μM)
  Inhibition rate of cell proliferation at highest concentration itself: 99.36%
[2]
  IC50: 12.5 µM

## C[C@H]1[C@@H](O)O[C@@H]2O[C@@]3(C)CC[C@H]4[C@H](C)CC[C@@H]1[C@@]24OO3 [DHA (dihydroartemisinin), Dihydroartemisinin]
[2]; Homo sapiens
  IC50: 20.2 µM

## O=c1cc(-c2ccccc2)oc2ccccc12 [Flavone]
[3]
  IC50: 12.6 µM

## O=C1[O][Pt]2([NH][C@@H]3CCCC[C@H]3[NH]2)[O]C1=O [Oxaliplatin]
[4]
  IC50: 55.8 µM

## CC[C@]1(O)C[C@H]2CN(CCc3c([nH]c4ccccc34)[C@@](C(=O)OC)(c3cc4c(cc3OC)N(C=O)[C@H]3[C@@](O)(C(=O)OC)[C@H](OC(C)=O)[C@]5(CC)C=CCN6CC[C@]43[C@@H]65)C2)C1 [Vincristine]
[1]; Homo sapiens
  IC50: 1.68 µM
[1]; Homo sapiens, highest concentration of each sample (Table 56: 100 μM, DNAh-Bio-Cy5 4.9 μM), read-out: Inhibition rate of cell proliferation at highest concentration itself
  inhibition at 100 µM: 70.7%

## COc1cccc2c1C(=O)c1c(O)c3c(c(O)c1C2=O)C[C@@](O)(C(=O)CO)C[C@@H]3O[C@H]1C[C@H](N)[C@H](O)[C@H](C)O1 [doxorubicin]
[5]
  IC50: 0.273 µM

B1: D-7: conventional-sequence DNA nanoparticles, SEQ ID NO:117-119, no target head, thio modification (nucleic acid)
chain 1: CGCGCGCCCACGAGCGTTGCGGGCGCCGC
chain 2: GCGGCGCCCGCTTCGGCGGCAGGCGGC
chain 3: GCCGCCAGCCGCCCATAGCCGTGGGCGCGCG
modifications: DNA, backbone not given here; phosphorothioate (thio) modified DNA nanoparticle, further chemistry not fully specified
[6]; result over the 3 detections
  Particle size Z-Ave, Experiment result: 12.33 d · nm (±1.57 d · nm)
[6]; single detections 1-3, DLS hydrodynamic size
  Particle size Z-Ave: 10.76 nm·days and 13.9 nm·days and 10.36 nm·days
